Reference: patent EP4104902B1, “COMPOUNDS AND M[…] SAME” (priority 2020, dated 2021)

Experiments:
[1] = tested on: mouse neuroblastoma cell strain Neuro-2A; experiment: Anti-cancer cell activity evaluation (minimum inhibitory concentration with respect to cells); assay type: cell-based; settings: MIC, 3 days
[2] = tested on: recombinant rabies virus 1088 strain expressing Gaussia Luciferase (GLuc) (1088/GLuc); assay type: cell-based; settings: read-out: Anti-rabies activity
[3] = compounds of formula XXIIB and formula XXIIF (continuation)
[4] = compounds of formula XXIIB and formula XXIIF

Structure (SMILES) | Anti-cancer cell activity ([1]; compounds of formula XXIB) | IC50 [2] [µM] | Anti-cancer cell activity [1, 3] | Anti-cancer cell activity ([1]; compounds of formula XXIF) | Anti-cancer cell activity [1, 4]
CC(C)CN1C[C@@H]2C[C@H]3CN[C@]2(C(=O)NCc2ccc(Cl)cc2)[C@@H]1[C@@H]3CCc1ccccc1 (relative stereo) [IB-925] | c (c if greater than 20 µM and less than or equal to 40 µM) | < 5 | – | – | –
CC(C)CN1C[C@@H]2C[C@H]3CN[C@]2(C(=O)NCc2cccc(Cl)c2)[C@@H]1[C@@H]3CCc1ccccc1 (relative stereo) [IB-926] | b (b if greater than 10 µM and less than or equal to 20 µM) | < 5 | – | – | –
COc1ccc(CNC(=O)[C@]23NC[C@@H]4C[C@H]2CN(CC(C)C)[C@H]3[C@@H]4CCc2ccccc2)cc1 (relative stereo) [IB-927] | c (c if greater than 20 µM and less than or equal to 40 µM) | < 5 | – | – | –
Cc1ccc(CNC(=O)[C@]23NC[C@@H]4C[C@H]2CN(CC(C)C)[C@H]3[C@@H]4CCc2ccccc2)cc1 (relative stereo) [IB-928] | c (c if greater than 20 µM and less than or equal to 40 µM) | < 5 | – | – | –
CC(C)CN1C[C@@H]2C[C@H]3CN[C@]2(C(=O)NCc2ccc4ccccc4c2)[C@@H]1[C@@H]3CCc1ccccc1 (relative stereo) [IB-929] | b (b if greater than 10 µM and less than or equal to 20 µM) | < 5 | – | – | –
CC(C)CN1C[C@@H]2C[C@H]3CN[C@]2(C(=O)NCc2ccccc2)[C@@H]1[C@@H]3CCCc1ccccc1 (relative stereo) [IB-930] | c (c if greater than 20 µM and less than or equal to 40 µM) | < 5 | – | – | –
CC(C)CN1C[C@@H]2C[C@H]3CN[C@]2(C(=O)NCc2cccc(Cl)c2)[C@@H]1[C@@H]3CCCc1ccccc1 (relative stereo) [IB-931] | c (c if greater than 20 µM and less than or equal to 40 µM) | < 5 | – | – | –
CC(C)CN1C[C@@H]2C[C@H]3CN[C@]2(C(=O)NCc2cccc(F)c2)[C@@H]1[C@@H]3CCCc1ccccc1 (relative stereo) [IB-932] | c (c if greater than 20 µM and less than or equal to 40 µM) | < 5 | – | – | –
Cc1cccc(CNC(=O)[C@]23NC[C@@H]4C[C@H]2CN(CC(C)C)[C@H]3[C@@H]4CCCc2ccccc2)c1 (relative stereo) [IB-933] | b (b if greater than 10 µM and less than or equal to 20 µM) | < 5 | – | – | –
COc1cccc(CNC(=O)[C@]23NC[C@@H]4C[C@H]2CN(CC(C)C)[C@H]3[C@@H]4CCCc2ccccc2)c1 (relative stereo) [IB-934] | b (b if greater than 10 µM and less than or equal to 20 µM) | < 5 | – | – | –
CC(C)CN1C[C@@H]2C[C@H]3CN[C@]2(C(=O)NCc2cccc(Cl)c2)[C@@H]1[C@@H]3CCCCc1ccccc1 (relative stereo) [IB-935] | c (c if greater than 20 µM and less than or equal to 40 µM) | < 5 | – | – | –
CC(C)CN1C[C@@H]2C[C@H]3CN[C@]2(C(=O)NCc2cccc(F)c2)[C@@H]1[C@@H]3CCCCc1ccccc1 (relative stereo) [IB-936] | b (b if greater than 10 µM and less than or equal to 20 µM) | < 5 | – | – | –
Cc1cccc(CNC(=O)[C@]23NC[C@@H]4C[C@H]2CN(CC(C)C)[C@H]3[C@@H]4CCCCc2ccccc2)c1 (relative stereo) [IB-937] | c (c if greater than 20 µM and less than or equal to 40 µM) | < 5 | – | – | –
CC(C)CN1C[C@@H]2C[C@H]3CN[C@]2(C(=O)NCc2ccccc2)[C@@H]1[C@@H]3CCCCc1ccccc1 (relative stereo) [IB-939] | c (c if greater than 20 µM and less than or equal to 40 µM) | < 5 | – | – | –
CC(C)CCN1C[C@@H]2C[C@H]3CN[C@]2(C(=O)NCc2cccc(F)c2)[C@@H]1[C@@H]3CCCc1ccccc1 (relative stereo) [IB-940] | c (c if greater than 20 µM and less than or equal to 40 µM) | < 5 | – | – | –
CC(C)CCN1C[C@H]2C[C@]3(C(=O)NCc4ccc(Cl)cc4)N=C[C@H]2[C@H]1[C@H]3Cc1ccccc1 (relative stereo) [IIF-326] | – | < 5 | b (b if greater than 10 µM and less than or equal to 20 µM) | – | –
CC(C)CN1C[C@H]2C[C@]3(C(=O)NCc4ccc(Cl)cc4)N=C[C@H]2[C@H]1[C@H]3CCc1ccccc1 (relative stereo) [IIF-330] | – | < 5 | c (c if greater than 20 µM and less than or equal to 40 µM) | – | –
CC(C)CN1C[C@H]2C[C@]3(C(=O)NCc4cccc(Cl)c4)N=C[C@H]2[C@H]1[C@H]3CCc1ccccc1 (relative stereo) [IIF-331] | – | < 5 | c (c if greater than 20 µM and less than or equal to 40 µM) | – | –
CC(C)CN1CC2CC3CNC2(C(=O)NCCc2ccccc2)C1C3CCc1ccccc1 (centres unmarked) [IB-957] | c (c if greater than 20 µM and less than or equal to 40 µM) | < 5 | – | – | –
CC(C)CN1CC2CC3CNC2(C(=O)NCc2cccc4ccccc24)C1C3CCc1ccccc1 (centres unmarked) [IB-958] | b (b if greater than 10 µM and less than or equal to 20 µM) | < 5 | – | – | –
COc1cccc(CNC(=O)C23CC4CN(CC(C)C)C(C4CN2)C3CCCc2ccccc2)c1 (centres unmarked) [IF-894] | – | < 5 | – | c (c if greater than 20 µM and less than or equal to 40 µM) | –
CC(C)CN1CC2CC3(C(=O)NCc4cccc(Cl)c4)NCC2C1C3CCCCc1ccccc1 (centres unmarked) [IF-895] | – | < 5 | – | b (b if greater than 10 µM and less than or equal to 20 µM) | –
CC(C)CN1CC2CC3(C(=O)NCc4cccc(F)c4)NCC2C1C3CCCCc1ccccc1 (centres unmarked) [IF-896] | – | < 5 | – | b (b if greater than 10 µM and less than or equal to 20 µM) | –
Cc1cccc(CNC(=O)C23CC4CN(CC(C)C)C(C4CN2)C3CCCCc2ccccc2)c1 (centres unmarked) [IF-897] | – | < 5 | – | b (b if greater than 10 µM and less than or equal to 20 µM) | –

Structure (SMILES) | Anti-cancer cell activity ([1]; compounds of formula XXIB) | IC50 [2] [µM] | Anti-cancer cell activity [1, 3] | Anti-cancer cell activity ([1]; compounds of formula XXIF) | Anti-cancer cell activity [1, 4]
CC(C)CN1CC2CC3(C(=O)NCc4ccccc4)NCC2C1C3CCCCc1ccccc1 (centres unmarked) [IF-899] | – | 5 to 10 | – | c (c if greater than 20 µM and less than or equal to 40 µM) | –
CC(C)CCN1CC2CC3(C(=O)NCc4cccc(F)c4)NCC2C1C3CCCc1ccccc1 (centres unmarked) [IF-900] | – | < 5 | – | c (c if greater than 20 µM and less than or equal to 40 µM) | –
CC(C)CN1CC2CC3C=NC2(C(=O)NCc2ccc(Cl)cc2)C1C3CCc1ccccc1 (centres unmarked) [IIB-331] | – | < 5 | – | – | c (c if greater than 20 µM and less than or equal to 40 µM)
CC(C)CN1CC2CC3C=NC2(C(=O)NCc2cccc(Cl)c2)C1C3CCc1ccccc1 (centres unmarked) [IIB-332] | – | < 5 | – | – | b (b if greater than 10 µM and less than or equal to 20 µM)
Cc1ccc(CNC(=O)C23N=CC4CC2CN(CC(C)C)C3C4CCc2ccccc2)cc1 (centres unmarked) [IIB-334] | – | < 5 | – | – | c (c if greater than 20 µM and less than or equal to 40 µM)
CC(C)CN1CC2CC3C=NC2(C(=O)NCc2ccc4ccccc4c2)C1C3CCc1ccccc1 (centres unmarked) [IIB-335] | – | < 5 | – | – | c (c if greater than 20 µM and less than or equal to 40 µM)
CC(C)CN1CC2CC3C=NC2(C(=O)NCc2ccccc2)C1C3CCCc1ccccc1 (centres unmarked) [IIB-336] | – | < 5 | – | – | c (c if greater than 20 µM and less than or equal to 40 µM)
CC(C)CN1CC2CC3C=NC2(C(=O)NCc2cccc(Cl)c2)C1C3CCCc1ccccc1 (centres unmarked) [IIB-337] | – | < 5 | – | – | c (c if greater than 20 µM and less than or equal to 40 µM)
CC(C)CN1CC2CC3C=NC2(C(=O)NCc2cccc(F)c2)C1C3CCCc1ccccc1 (centres unmarked) [IIB-338] | – | < 5 | – | – | c (c if greater than 20 µM and less than or equal to 40 µM)
Cc1cccc(CNC(=O)C23N=CC4CC2CN(CC(C)C)C3C4CCCc2ccccc2)c1 (centres unmarked) [IIB-340] | – | < 5 | – | – | c (c if greater than 20 µM and less than or equal to 40 µM)
COc1cccc(CNC(=O)C23N=CC4CC2CN(CC(C)C)C3C4CCCc2ccccc2)c1 (centres unmarked) [IIB-341] | – | < 5 | – | – | c (c if greater than 20 µM and less than or equal to 40 µM)
CC(C)CN1CC2CC3C=NC2(C(=O)NCc2cccc(Cl)c2)C1C3CCCCc1ccccc1 (centres unmarked) [IIB-342] | – | 5 to 10 | – | – | b (b if greater than 10 µM and less than or equal to 20 µM)
CC(C)CN1CC2CC3C=NC2(C(=O)NCc2cccc(F)c2)C1C3CCCCc1ccccc1 (centres unmarked) [IIB-343] | – | < 5 | – | – | c (c if greater than 20 µM and less than or equal to 40 µM)
Cc1cccc(CNC(=O)C23N=CC4CC2CN(CC(C)C)C3C4CCCCc2ccccc2)c1 (centres unmarked) [IIB-344] | – | < 5 | – | – | b (b if greater than 10 µM and less than or equal to 20 µM)
COc1cccc(CNC(=O)C23N=CC4CC2CN(CC(C)C)C3C4CCCCc2ccccc2)c1 (centres unmarked) [IIB-345] | – | < 5 | – | – | c (c if greater than 20 µM and less than or equal to 40 µM)
CC(C)CC1C2C3C=NC1(C(=O)NCc1ccccc1)CC3CN2Cc1ccc(Cl)cc1 (centres unmarked) [IIF-83] | – | < 5 | – | – | –
CC(C)CC1C2C3C=NC1(C(=O)NCc1ccccc1)CC3CN2Cc1cccc(Cl)c1 (centres unmarked) [IIF-84] | – | 5 to 10 | – | – | –
COc1ccc(CN2CC3CC4(C(=O)NCc5ccccc5)N=CC3C2C4CC(C)C)cc1 (centres unmarked) [IIF-85] | – | 5 to 10 | – | – | –
Cc1ccc(CN2CC3CC4(C(=O)NCc5ccccc5)N=CC3C2C4CC(C)C)cc1 (centres unmarked) [IIF-86] | – | < 5 | – | – | –
CC(C)CC1C2C3C=NC1(C(=O)NCc1ccccc1)CC3CN2Cc1ccc(N(C)C)cc1 (centres unmarked) [IIF-94] | – | 5 to 10 | – | – | –
CC(C)CC1C2C3C=NC1(C(=O)NCc1ccccc1)CC3CN2Cc1ccc(C(C)(C)C)cc1 (centres unmarked) [IIF-95] | – | < 5 | – | – | –
CC(C)CC1C2C3C=NC1(C(=O)NCc1ccccc1)CC3CN2Cc1ccc(OC(F)(F)F)cc1 (centres unmarked) [IIF-96] | – | 5 to 10 | – | – | –
CCOc1ccc(CN2CC3CC4(C(=O)NCc5ccccc5)N=CC3C2C4CC(C)C)cc1 (centres unmarked) [IIF-97] | – | 10 to 30 | – | – | –
